Values after ≈ are worked out from the molar mass of the structure shown.
How the values were obtained:
Test in all cases: In vitro antifungal activity, microbroth dilution MIC
Assay type in all cases: cell-based
[1] = system: Candida krusei K. 11655; conditions: 4 to 48 hours; for Minimal inhibitory concentration(MIC), C. krusei K. 11655: RPMI-1640, 35° C., no growth observed; for Minimal inhibitory concentration (MIC): C. krusei K. 11655, RPMI-1640, 35° C.
Procedure, shortened: (§1)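 Broth microdilution adapted from NCCLS M27, in RPMI-1640 with 0.165 M MOPS, pH 7.0. Yeast or mould inoculum at 2×10^3 CFU/ml was mixed 1:1 with DMSO-derived compound solutions (200 to 0.10 μg/ml before mixing) and incubated at 35 °C for 4 to 48 h. MIC was the concentration showing no growth.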

[2] = system: Trichophyton mentagrophytes A. 9129; conditions: 4 to 48 hours; for Minimal inhibitory concentration(MIC), T. mentagrophytes A. 9129: RPMI-1640, 35° C., no growth observed; for Minimal inhibitory concentration (MIC): T. mentagrophytes A. 9129, RPMI-1640, 35° C.
Procedure, shortened: as §1

[3] = system: Candida parapsitosis A. 7330; conditions: 4 to 48 hours; for Minimal inhibitory concentration(MIC), C. parapsitosis A. 7330: RPMI-1640, 35° C., no growth observed; for Minimal inhibitory concentration (MIC): C. parapsitosis A. 7330, RPMI-1640, 35° C.
Procedure, shortened: as §1

[4] = system: Cryptococcus neoformans IFM. 40092; conditions: 4 to 48 hours; for Minimal inhibitory concentration(MIC), Cry. neoformans IFM. 40092: RPMI-1640, 35° C., no growth observed; for Minimal inhibitory concentration (MIC): Cry. neoformans IFM. 40092, RPMI-1640, 35° C.
Procedure, shortened: as §1

[5] = system: Candida tropicalis A. 13803; conditions: 4 to 48 hours; for Minimal inhibitory concentration(MIC), C. tropicalis A. 13803: RPMI-1640, 35° C., no growth observed; for Minimal inhibitory concentration (MIC): C. tropicalis A. 13803, RPMI-1640, 35° C.
Procedure, shortened: as §1

[6] = system: Trichophyton mentagrophytes B. 32663; conditions: 4 to 48 hours; for Minimal inhibitory concentration(MIC), T. mentagrophytes B. 32663: RPMI-1640, 35° C., no growth observed; for Minimal inhibitory concentration (MIC): T. mentagrophytes B. 32663, RPMI-1640, 35° C.
Procedure, shortened: as §1

[7] = system: Aspergillus niger A. 16404; conditions: 4 to 48 hours; for Minimal inhibitory concentration(MIC), A. niger A. 16404: RPMI-1640, 35° C., no growth observed; for Minimal inhibitory concentration (MIC): A. niger A. 16404, RPMI-1640, 35° C.
Procedure, shortened: as §1

[8] = system: Cryptococcus neoformans A. 34144; conditions: 4 to 48 hours; for Minimal inhibitory concentration(MIC), Cry. neoformans A. 34144: RPMI-1640, 35° C., no growth observed; for Minimal inhibitory concentration (MIC): Cry. neoformans A. 34144, RPMI-1640, 35° C.
Procedure, shortened: as §1

[9] = system: Candida pseudotropicalis K. 11658; conditions: 4 to 48 hours; for Minimal inhibitory concentration(MIC), C. pseudotropicalis K. 11658: RPMI-1640, 35° C., no growth observed; for Minimal inhibitory concentration (MIC): C. pseudotropicalis K. 11658, RPMI-1640, 35° C.
Procedure, shortened: as §1

[10] = system: Candida albicans C1-2; conditions: 4 to 48 hours; for Minimal inhibitory concentration(MIC), C. albicans C1-2: RPMI-1640, 35° C., no growth observed; for Minimal inhibitory concentration (MIC): C. albicans C1-2, RPMI-1640, 35° C.
Procedure, shortened: as §1

[11] = system: Aspergillus furnigatus B. 19119; conditions: 4 to 48 hours; for Minimal inhibitory concentration(MIC), A furnigatus B. 19119: RPMI-1640, 35° C., no growth observed; for Minimal inhibitory concentration (MIC): A furnigatus B. 19119, RPMI-1640, 35° C.
Procedure, shortened: as §1

[12] = system: Candida albicans IFO. 1385; conditions: 4 to 48 hours; for Minimal inhibitory concentration(MIC), C. albicans IFO. 1385: RPMI-1640, 35° C., no growth observed; for Minimal inhibitory concentration (MIC): C. albicans IFO. 1385, RPMI-1640, 35° C.
Procedure, shortened: as §1

[13] = system: Torulopsis glabrata B. 16205; conditions: 4 to 48 hours; for Minimal inhibitory concentration(MIC), T. glabrata B. 16205: RPMI-1640, 35° C., no growth observed; for Minimal inhibitory concentration (MIC): T. glabrata B. 16205, RPMI-1640, 35° C.
Procedure, shortened: as §1

[14] = system: Candida albicans A. 10231; conditions: 4 to 48 hours; for Minimal inhibitory concentration(MIC), C. albicans A. 10231: RPMI-1640, 35° C., no growth observed; for Minimal inhibitory concentration (MIC): C. albicans A. 10231, RPMI-1640, 35° C.
Procedure, shortened: as §1

[15] = system: Cryptococcus neoformans B. 42419; conditions: 4 to 48 hours; for Minimal inhibitory concentration(MIC), Cry. neoformans B. 42419: RPMI-1640, 35° C., no growth observed; for Minimal inhibitory concentration (MIC): Cry. neoformans B. 42419, RPMI-1640, 35° C.
Procedure, shortened: as §1

Row | Structure (SMILES) | Minimal inhibitory concentration(MIC), C. krusei K. 11655 [1] | Minimal inhibitory concentration(MIC), T. mentagrophytes A. 9129 [2] | Minimal inhibitory concentration(MIC), C. parapsitosis A. 7330 [3] | Minimal inhibitory concentration(MIC), Cry. neoformans IFM. 40092 [4] | Minimal inhibitory concentration(MIC), C. tropicalis A. 13803 [5] | Minimal inhibitory concentration(MIC), T. mentagrophytes B. 32663 [6] | Minimal inhibitory concentration(MIC), A. niger A. 16404 [7] | Minimal inhibitory concentration(MIC), Cry. neoformans A. 34144 [8] | Minimal inhibitory concentration(MIC), C. pseudotropicalis K. 11658 [9] | Minimal inhibitory concentration(MIC), A furnigatus B. 19119 [11] | Minimal inhibitory concentration(MIC), C. albicans IFO. 1385 [12] | Minimal inhibitory concentration(MIC), T. glabrata B. 16205 [13] | Minimal inhibitory concentration(MIC), Cry. neoformans B. 42419 [15] | Minimal inhibitory concentration (MIC) [1] | Minimal inhibitory concentration (MIC) [2] | Minimal inhibitory concentration (MIC) [3] | Minimal inhibitory concentration (MIC) [4] | Minimal inhibitory concentration (MIC) [5] | Minimal inhibitory concentration (MIC) [10] | Minimal inhibitory concentration (MIC) [14] | also measured
1 | FC(OCC1COC(Cn2cncn2)(c2ccc(Cl)cc2Cl)O1)=C(c1ccc(F)cc1)C(F)(F)F (mixture of isomers) [Ex. 87] | >100 mg/L | >100 mg/L | >100 mg/L | 0.78 mg/L | >100 mg/L | >100 mg/L | >100 mg/L | 1.56 mg/L | >100 mg/L | >100 mg/L | 6.25 mg/L | >100 mg/L | 1.56 mg/L |  |  |  |  |  |  |  | Minimal inhibitory concentration(MIC), C. albicans C1-2 [10]: >100 mg/L; Minimal inhibitory concentration(MIC), C. albicans A. 10231 [14]: >100 mg/L
2 | Cc1cccc(C=C(F)OCC2COC(Cn3ccnc3)(c3ccc(Cl)cc3Cl)O2)c1 (stereo not drawn) [Ex. 2] |  |  |  |  |  |  |  |  |  |  |  |  |  | 12.5 mg/L (≈ 27 µM) | 1.56 mg/L (≈ 3.37 µM) | 12.5 mg/L (≈ 27 µM) | 1.56 mg/L (≈ 3.37 µM) | 25.0 mg/L (≈ 54 µM) | 6.25 mg/L (≈ 13.5 µM) | 6.25 mg/L (≈ 13.5 µM) | Minimal inhibitory concentration (MIC) [6]: 1.56 mg/L (≈ 3.37 µM); Minimal inhibitory concentration (MIC) [7]: 3.13 mg/L (≈ 6.76 µM); Minimal inhibitory concentration (MIC) [8]: 3.13 mg/L (≈ 6.76 µM); Minimal inhibitory concentration (MIC) [9]: 12.5 mg/L (≈ 27 µM); Minimal inhibitory concentration (MIC) [11]: 3.13 mg/L (≈ 6.76 µM); Minimal inhibitory concentration (MIC) [12]: 0.78 mg/L (≈ 1.68 µM); Minimal inhibitory concentration (MIC) [13]: 6.25 mg/L (≈ 13.5 µM); Minimal inhibitory concentration (MIC) [15]: 3.13 mg/L (≈ 6.76 µM)
3 | FC(=Cc1ccc(F)cc1)OCC1COC(Cn2ccnc2)(c2ccc(Cl)cc2Cl)O1 (stereo not drawn) [Ex. 16] |  |  |  |  |  |  |  |  |  |  |  |  |  | 6.25 mg/L (≈ 13.4 µM) | 1.56 mg/L (≈ 3.34 µM) | 6.25 mg/L (≈ 13.4 µM) | 0.39 mg/L (≈ 0.835 µM) | 25.0 mg/L (≈ 53.5 µM) | 6.25 mg/L (≈ 13.4 µM) | 12.5 mg/L (≈ 26.7 µM) | Minimal inhibitory concentration (MIC) [6]: 1.56 mg/L (≈ 3.34 µM); Minimal inhibitory concentration (MIC) [7]: 3.13 mg/L (≈ 6.7 µM); Minimal inhibitory concentration (MIC) [8]: 1.56 mg/L (≈ 3.34 µM); Minimal inhibitory concentration (MIC) [9]: 3.13 mg/L (≈ 6.7 µM); Minimal inhibitory concentration (MIC) [11]: 3.13 mg/L (≈ 6.7 µM); Minimal inhibitory concentration (MIC) [12]: 0.78 mg/L (≈ 1.67 µM); Minimal inhibitory concentration (MIC) [13]: 6.25 mg/L (≈ 13.4 µM); Minimal inhibitory concentration (MIC) [15]: 1.56 mg/L (≈ 3.34 µM)
4 | COc1ccc(C=C(F)Oc2ccc(OCC3COC(Cn4ccnc4)(c4ccc(F)cc4F)O3)cc2)cc1 (mixture of isomers) [Ex. 105] | >100 mg/L | 100 mg/L | >100 mg/L | 1.56 mg/L | >100 mg/L | 100 mg/L | >100 mg/L | 6.25 mg/L | >100 mg/L | >100 mg/L | 6.25 mg/L | >100 mg/L | 12.5 mg/L |  |  |  |  |  |  |  | Minimal inhibitory concentration(MIC), C. albicans C1-2 [10]: 100 mg/L; Minimal inhibitory concentration(MIC), C. albicans A. 10231 [14]: 50.0 mg/L
5 | FC(=Cc1ccc(Cl)cc1)OCC1COC(Cn2cncn2)(c2ccc(Cl)cc2Cl)O1 (mixture of isomers) [Ex. 76] | >100 mg/L | 3.13 mg/L | >100 mg/L | 0.78 mg/L | 25.0 mg/L | 3.13 mg/L | 12.5 mg/L | 3.13 mg/L | 100 mg/L | 25.0 mg/L | 6.25 mg/L | 25.0 mg/L | 3.13 mg/L |  |  |  |  |  | 6.25 mg/L | 6.25 mg/L | 
6 | FC(OCC1COC(Cn2ccnc2)(c2ccc(Cl)cc2Cl)O1)=C(c1ccc(Oc2ccccc2)cc1)C(F)(F)F (stereo not drawn) [Ex. 29] |  |  |  |  |  |  |  |  |  |  |  |  |  | >100 mg/L | 6.25 mg/L (≈ 10.3 µM) | >100 mg/L | 0.20 mg/L (≈ 0.328 µM) | >100 mg/L | >100 mg/L | >100 mg/L | Minimal inhibitory concentration (MIC) [6]: 3.13 mg/L (≈ 5.14 µM); Minimal inhibitory concentration (MIC) [7]: 100 mg/L (≈ 164 µM); Minimal inhibitory concentration (MIC) [8]: 1.56 mg/L (≈ 2.56 µM); Minimal inhibitory concentration (MIC) [9]: >100 mg/L; Minimal inhibitory concentration (MIC) [11]: 6.25 mg/L (≈ 10.3 µM); Minimal inhibitory concentration (MIC) [12]: 1.56 mg/L (≈ 2.56 µM); Minimal inhibitory concentration (MIC) [13]: 12.5 mg/L (≈ 20.5 µM); Minimal inhibitory concentration (MIC) [15]: 1.56 mg/L (≈ 2.56 µM)
7 | FC(=Cc1ccc2c(c1)OCO2)OCC1COC(Cn2cncn2)(c2ccc(Cl)cc2Cl)O1 (mixture of isomers) [Ex. 75] | 100 mg/L | 3.13 mg/L | >100 mg/L | 0.39 mg/L | 100 mg/L | 3.13 mg/L | >100 mg/L | 1.56 mg/L | 25.0 mg/L | 100 mg/L | 25.0 mg/L | 50.0 mg/L | 1.56 mg/L |  |  |  |  |  | 100 mg/L | 100 mg/L | 

Source: patent US6376497B1, “Antifungal azole derivatives having a fluorinated vinyl group and process for preparing same” (Korea Research Institute of Chemical Technology, priority 1999, dated 2002)
